Common to all, as to experiment: Enzyme mapping: metabolite formation by recombinant P450 isoenzyme
Format in all cases: in vitro ADME

Data set [1] addresses T1, CYP2C8 (Homo sapiens, UniProt P10632).
T1 construct: purchased BD Biosciences 456252; host or cells: baculovirus infected insect cells (BTI-TN-5B1-4)
T1 sequence (P10632 1-490): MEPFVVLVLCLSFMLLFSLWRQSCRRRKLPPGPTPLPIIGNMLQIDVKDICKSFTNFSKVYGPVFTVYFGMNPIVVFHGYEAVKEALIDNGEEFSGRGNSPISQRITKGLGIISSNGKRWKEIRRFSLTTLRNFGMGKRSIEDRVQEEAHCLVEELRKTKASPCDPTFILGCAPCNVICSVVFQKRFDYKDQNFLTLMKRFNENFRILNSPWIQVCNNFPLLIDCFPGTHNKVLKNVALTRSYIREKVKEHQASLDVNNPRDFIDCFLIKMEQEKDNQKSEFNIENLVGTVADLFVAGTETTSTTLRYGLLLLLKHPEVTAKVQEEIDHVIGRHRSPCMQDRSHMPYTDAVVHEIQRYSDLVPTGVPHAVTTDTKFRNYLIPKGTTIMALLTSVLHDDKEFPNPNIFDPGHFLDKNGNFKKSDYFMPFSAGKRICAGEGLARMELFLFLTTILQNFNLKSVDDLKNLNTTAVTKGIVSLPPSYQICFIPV
The conditions noted are these: for Metabolism Rate: 30 pmol/mL, 30 min. On the procedure: (§1) Microsomes prepared from baculovirus infected insect cells (BTI-TN-5B1-4) expressing the following human P450 enzymes and the insect cell membrane preparations (negative control) were obtained from BD Biosciences (Woburn, Mass., USA).
(§2) The final concentrations are given in parentheses.
(§3) After 30 min at −80° C. […] The supernatant was withdrawn. […] Sample solutions were analyzed by HPLC combined with radiodetection. (for HLPC method, see Section 1.6)
(§4) Mean specific CYP enzyme concentrations in human liver microsomes were obtained from literature values (Rowland Yeo K, Rostami-Hodjegan A and Trucker GT (2004)] Abundance of cytochromes P450 in human liver: a meta-analysis. Br. J. Clinical Pharmacology; 57:687-688). For some recombinant human CYPs, the enzyme kinetic parameters were estimated by calculation assuming Michaelis-Menten type behavior for the two concentrations used, solving a linear equation system for 2 linear equations with 2 variables: […]
(§5) Microsomes prepared from baculovirus infected insect cells (BTI-TN-5B1-4) expressing one single human cytochrome P450 isoenzyme were used to assess the involvement of specific enzymes in the biotransformation of [14C]BAF312. Incubation experiments with a panel of 21 recombinant human CYPs (CYP1A1, 1A2, 1B1, 2A6, 2B6, 2C8, 2C9*1, 2C18, 2C19, 2D6*1, 2E1, 2J2, 3A4, 3A5, 3A7, 4A11, 4F2, 4F3A, 4F3B, 4F12 and CYP19) were conducted under similar conditions for each isoenzyme with 10 and 40 μM BAF312 incubation and 30 pmol CYP/mL for 30 min. […] Lower metabolism activities were also observed in incubation with CYP3A4, while some trace metabolism was detected with other CYP isoenzymes (2B6, 2C8, 2C19, 2J2, 3A5, 1A1).

Data set [2] concerns the target T2, CYP2B6 (Homo sapiens, UniProt P20813).
T2 construct: purchased BD Biosciences 456210; host or cells: baculovirus infected insect cells (BTI-TN-5B1-4)
T2 sequence (P20813 1-491): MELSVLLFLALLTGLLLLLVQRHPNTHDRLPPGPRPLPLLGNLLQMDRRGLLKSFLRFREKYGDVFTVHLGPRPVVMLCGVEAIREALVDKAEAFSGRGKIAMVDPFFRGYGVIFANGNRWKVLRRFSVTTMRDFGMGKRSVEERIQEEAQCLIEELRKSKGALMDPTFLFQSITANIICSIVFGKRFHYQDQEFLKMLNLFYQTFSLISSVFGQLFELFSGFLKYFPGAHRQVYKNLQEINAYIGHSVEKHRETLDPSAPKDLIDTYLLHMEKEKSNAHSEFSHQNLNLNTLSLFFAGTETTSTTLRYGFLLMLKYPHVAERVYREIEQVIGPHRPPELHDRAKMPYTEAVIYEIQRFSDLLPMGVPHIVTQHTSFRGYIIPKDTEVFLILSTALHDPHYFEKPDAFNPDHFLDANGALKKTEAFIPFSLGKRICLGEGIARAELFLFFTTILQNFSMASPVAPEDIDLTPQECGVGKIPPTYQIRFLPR
To be noted: for Metabolism Rate: 30 pmol/mL, 30 min. On the procedure: as §1, §2, §3, §4, §5

The target in data set [3] is T3, CYP2J2 (Homo sapiens, UniProt P51589).
T3 construct: purchased BD Biosciences 456264; host or cells: baculovirus infected insect cells (BTI-TN-5B1-4)
T3 sequence (P51589 1-502): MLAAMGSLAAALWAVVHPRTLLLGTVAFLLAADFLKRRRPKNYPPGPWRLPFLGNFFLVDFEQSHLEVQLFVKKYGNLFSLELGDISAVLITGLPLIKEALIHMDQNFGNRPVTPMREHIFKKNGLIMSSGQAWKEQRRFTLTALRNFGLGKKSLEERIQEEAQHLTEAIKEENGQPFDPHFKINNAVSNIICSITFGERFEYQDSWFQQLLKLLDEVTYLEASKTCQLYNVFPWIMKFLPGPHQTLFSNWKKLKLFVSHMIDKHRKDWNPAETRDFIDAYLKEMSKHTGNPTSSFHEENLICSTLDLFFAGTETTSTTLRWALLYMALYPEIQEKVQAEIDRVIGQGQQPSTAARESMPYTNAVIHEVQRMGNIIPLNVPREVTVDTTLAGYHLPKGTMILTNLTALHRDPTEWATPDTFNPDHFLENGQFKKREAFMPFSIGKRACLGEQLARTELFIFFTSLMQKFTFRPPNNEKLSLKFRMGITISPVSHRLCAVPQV
To be noted: 30 pmol/mL, 30 min. On the procedure:
as §1, §2, §3, §4, §5

This is an account of results in patent publication US20160046573A1, “IDENTIFYING PATIENT RESPONSE TO S1P RECEPTOR MODULATOR ADMINISTRATION” (Novartis AG, priority 2013, published 2016).

Consider `CCc1cc(/C(C)=N/OCc2ccc(C3CCCCC3)c(C(F)(F)F)c2)ccc1CN1CC(C(=O)O)C1` [BAF312, 1-{4-[1-(4-cyclohexyl-3-trifluoromethyl-benzyloxyimino)-ethyl]-2-ethyl-benzyl}-azetidine-3-carboxylic acid], for which the “Metabolism Rate” value was 11.1 pmol/min/nmol CYP 450 in data set [1] (10 μM BAF312); 13.3 pmol/min/nmol CYP 450 in data set [1] (40 μM BAF312); 17.8 pmol/min/nmol CYP 450 in data set [2] (10 μM BAF312); 44.4 pmol/min/nmol CYP 450 in data set [2] (40 μM BAF312); 2.8 pmol/min/nmol CYP 450 in data set [3] (10 μM BAF312); 8.9 pmol/min/nmol CYP 450 in data set [3] (40 μM BAF312). The “Contribution (% total Rel. CL)” value came to 1.7% in data set [1] (CYP 2C8, metabolic clearance in human liver microsomes) and 0.4% in data set [2] (CYP 2B6, metabolic clearance in human liver microsomes). The “Rel. CL” value in data set [1] (CYP 2C8, relative to abundance in human liver microsomes) is recorded as 0.22 μl/(min · nmol total CYP); in data set [2] (CYP 2B6, relative to abundance in human liver microsomes) it was 0.04 μl/(min · nmol total CYP). The Vmax in data set [2] (CYP 2B6, estimated by solving the Michaelis-Menten equation for the 2 substrate concentrations) is listed as 88.9 pmol/(min · nmol CYP). In data set [2] (human, pH 7.4, CYP 2B6, estimated by solving the Michaelis-Menten equation for the 2 substrate concentrations), the Km (as a rule, the substrate concentration at which the rate is half of its maximum) at 30 min was 40 µM.
